Measured values from PubChem BioAssay (NCI).
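Five compound concentrations were applied to cells in 96-well plates for 48 hours; endpoints were derived by simple linear interpolation of the resulting dose-response curve. The concentration for full growth arrest is given as TGI.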

How the values were obtained:
Experiment in all cases: growth of human tumour cells (NCI), 48 h
786-0 renal = system: 786-0 renal
A498 renal = system: A498 renal
A549 NSCLC = system: A549 NSCLC
ACHN renal = system: ACHN renal
BT-549 breast = system: BT-549 breast
CAKI-1 renal = system: CAKI-1 renal
CCRF-CEM leukemia = system: CCRF-CEM leukemia
COLO 205 colon = system: COLO 205 colon
DU-145 prostate = system: DU-145 prostate
EKVX NSCLC = system: EKVX NSCLC
HCC-2998 colon = system: HCC-2998 colon
HCT-116 colon = system: HCT-116 colon
HCT-15 colon = system: HCT-15 colon
HL-60(TB) leukemia = system: HL-60(TB) leukemia
HOP-62 NSCLC = system: HOP-62 NSCLC
HOP-92 NSCLC = system: HOP-92 NSCLC
HS 578T breast = system: HS 578T breast
HT29 colon = system: HT29 colon
IGROV1 ovarian = system: IGROV1 ovarian
K-562 leukemia = system: K-562 leukemia
KM12 colon = system: KM12 colon
LOX IMVI melanoma = system: LOX IMVI melanoma
M14 melanoma = system: M14 melanoma
MALME-3M melanoma = system: MALME-3M melanoma
MCF7 breast = system: MCF7 breast
MDA-MB-231 breast = system: MDA-MB-231 breast
MDA-MB-435 = system: MDA-MB-435
MDA-N = system: MDA-N
MOLT-4 leukemia = system: MOLT-4 leukemia
NCI-H226 lung = system: NCI-H226 lung
NCI-H23 lung = system: NCI-H23 lung
NCI-H460 lung = system: NCI-H460 lung
NCI-H522 lung = system: NCI-H522 lung
NCI/ADR-RES ovarian = system: NCI/ADR-RES ovarian
OVCAR-3 ovarian = system: OVCAR-3 ovarian
OVCAR-4 ovarian = system: OVCAR-4 ovarian
OVCAR-5 ovarian = system: OVCAR-5 ovarian
OVCAR-8 ovarian = system: OVCAR-8 ovarian
PC-3 prostate = system: PC-3 prostate
RPMI-8226 leukemia = system: RPMI-8226 leukemia
RXF 393 renal = system: RXF 393 renal
SF-268 CNS = system: SF-268 CNS
SF-295 CNS = system: SF-295 CNS
SF-539 CNS = system: SF-539 CNS
SK-MEL-2 melanoma = system: SK-MEL-2 melanoma
SK-MEL-28 melanoma = system: SK-MEL-28 melanoma
SK-MEL-5 melanoma = system: SK-MEL-5 melanoma
SK-OV-3 ovarian = system: SK-OV-3 ovarian
SN12C renal = system: SN12C renal
SNB-19 CNS = system: SNB-19 CNS
SNB-75 CNS = system: SNB-75 CNS
SW-620 colon = system: SW-620 colon
T-47D breast = system: T-47D breast
TK-10 renal = system: TK-10 renal
U251 CNS = system: U251 CNS
UACC-257 melanoma = system: UACC-257 melanoma
UACC-62 melanoma = system: UACC-62 melanoma
UO-31 renal = system: UO-31 renal

## Oc1cccc2cc(Cl)cnc12
786-0 renal
  TGI: > 100 µM
A498 renal
  TGI: > 77.5 µM
A549 NSCLC
  TGI: > 100 µM
ACHN renal
  TGI: > 100 µM
BT-549 breast
  TGI: > 100 µM
CAKI-1 renal
  TGI: > 100 µM
CCRF-CEM leukemia
  TGI: 15.5 µM
COLO 205 colon
  TGI: > 100 µM
DU-145 prostate
  TGI: > 100 µM
EKVX NSCLC
  TGI: 98.9 µM
HCC-2998 colon
  TGI: > 88.4 µM
HCT-116 colon
  TGI: 37.8 µM
HCT-15 colon
  TGI: > 100 µM
HL-60(TB) leukemia
  TGI: 6.27 µM
HOP-62 NSCLC
  TGI: > 100 µM
HOP-92 NSCLC
  TGI: > 100 µM
HS 578T breast
  TGI: > 83.5 µM
HT29 colon
  TGI: > 69.2 µM
IGROV1 ovarian
  TGI: > 83.4 µM
K-562 leukemia
  TGI: 38.3 µM
KM12 colon
  TGI: > 100 µM
LOX IMVI melanoma
  TGI: > 64.1 µM
M14 melanoma
  TGI: > 100 µM
MALME-3M melanoma
  TGI: > 100 µM
MCF7 breast
  TGI: > 100 µM
MDA-MB-231 breast
  TGI: > 100 µM
MDA-MB-435
  TGI: > 100 µM
MDA-N
  TGI: > 100 µM
MOLT-4 leukemia
  TGI: 27.4 µM
NCI-H226 lung
  TGI: 97.5 µM
NCI-H23 lung
  TGI: > 100 µM
NCI-H460 lung
  TGI: > 100 µM
NCI-H522 lung
  TGI: 22 µM
NCI/ADR-RES ovarian
  TGI: 30.3 µM
OVCAR-3 ovarian
  TGI: > 31.1 µM
OVCAR-4 ovarian
  TGI: > 90.6 µM
OVCAR-5 ovarian
  TGI: > 100 µM
OVCAR-8 ovarian
  TGI: > 100 µM
PC-3 prostate
  TGI: > 100 µM
RPMI-8226 leukemia
  TGI: 61.6 µM
RXF 393 renal
  TGI: > 79.6 µM
SF-268 CNS
  TGI: > 100 µM
SF-295 CNS
  TGI: > 100 µM
SF-539 CNS
  TGI: 99 µM
SK-MEL-2 melanoma
  TGI: > 100 µM
SK-MEL-28 melanoma
  TGI: > 100 µM
SK-MEL-5 melanoma
  TGI: 99.1 µM
SK-OV-3 ovarian
  TGI: > 100 µM
SN12C renal
  TGI: > 100 µM
SNB-19 CNS
  TGI: > 100 µM
SNB-75 CNS
  TGI: > 100 µM
SW-620 colon
  TGI: > 100 µM
T-47D breast
  TGI: > 68.5 µM
TK-10 renal
  TGI: > 100 µM
U251 CNS
  TGI: > 100 µM
UACC-257 melanoma
  TGI: 81.7 µM
UACC-62 melanoma
  TGI: > 44.7 µM
UO-31 renal
  TGI: > 100 µM

## OC(c1ccc(F)cc1)(c1ccc(F)cc1)C1CC1
786-0 renal
  TGI: > 100 µM
A498 renal
  TGI: 77.8 µM
A549 NSCLC
  TGI: 94.2 µM
ACHN renal
  TGI: > 100 µM
BT-549 breast
  TGI: 37.9 µM
CAKI-1 renal
  TGI: 98.7 µM
CCRF-CEM leukemia
  TGI: 95.8 µM
COLO 205 colon
  TGI: 29.7 µM
DU-145 prostate
  TGI: > 100 µM
EKVX NSCLC
  TGI: 96.2 µM
HCC-2998 colon
  TGI: 45.7 µM
HCT-116 colon
  TGI: > 100 µM
HCT-15 colon
  TGI: 68.2 µM
HL-60(TB) leukemia
  TGI: 47.3 µM
HOP-62 NSCLC
  TGI: > 100 µM
HOP-92 NSCLC
  TGI: 97 µM
HS 578T breast
  TGI: 82.6 µM
HT29 colon
  TGI: 65.9 µM
IGROV1 ovarian
  TGI: > 100 µM
K-562 leukemia
  TGI: > 100 µM
KM12 colon
  TGI: > 100 µM
LOX IMVI melanoma
  TGI: 48.2 µM
M14 melanoma
  TGI: 69.2 µM
MALME-3M melanoma
  TGI: 65.2 µM
MCF7 breast
  TGI: > 100 µM
MDA-MB-231 breast
  TGI: > 100 µM
MDA-MB-435
  TGI: 74.2 µM
MDA-N
  TGI: 44.1 µM
MOLT-4 leukemia
  TGI: 49.2 µM
NCI-H226 lung
  TGI: 88.1 µM
NCI-H23 lung
  TGI: 35.9 µM
NCI-H460 lung
  TGI: > 100 µM
NCI-H522 lung
  TGI: 52.9 µM
NCI/ADR-RES ovarian
  TGI: 58 µM
OVCAR-3 ovarian
  TGI: > 100 µM
OVCAR-4 ovarian
  TGI: 79.2 µM
OVCAR-5 ovarian
  TGI: > 100 µM
OVCAR-8 ovarian
  TGI: > 100 µM
PC-3 prostate
  TGI: 53.7 µM
RPMI-8226 leukemia
  TGI: 59.2 µM
RXF 393 renal
  TGI: 67.7 µM
SF-268 CNS
  TGI: > 100 µM
SF-295 CNS
  TGI: > 100 µM
SF-539 CNS
  TGI: > 100 µM
SK-MEL-2 melanoma
  TGI: 32.5 µM
SK-MEL-28 melanoma
  TGI: > 100 µM
SK-MEL-5 melanoma
  TGI: 30.2 µM
SK-OV-3 ovarian
  TGI: > 100 µM
SN12C renal
  TGI: 53.6 µM
SNB-19 CNS
  TGI: > 100 µM
SNB-75 CNS
  TGI: > 100 µM
SW-620 colon
  TGI: > 100 µM
T-47D breast
  TGI: > 100 µM
TK-10 renal
  TGI: > 100 µM
U251 CNS
  TGI: 59.6 µM
UACC-257 melanoma
  TGI: 73 µM
UACC-62 melanoma
  TGI: > 100 µM
UO-31 renal
  TGI: 59.5 µM

## Cc1ccc2c3c4c(ccc13)C(C)(C)OC4=C(C(C)C)C2=O
786-0 renal
  TGI: > 100 µM
A498 renal
  TGI: > 100 µM
A549 NSCLC
  TGI: > 100 µM
ACHN renal
  TGI: > 100 µM
BT-549 breast
  TGI: > 100 µM
CAKI-1 renal
  TGI: > 100 µM
CCRF-CEM leukemia
  TGI: > 100 µM
COLO 205 colon
  TGI: > 100 µM
DU-145 prostate
  TGI: > 100 µM
EKVX NSCLC
  TGI: > 100 µM
HCC-2998 colon
  TGI: > 100 µM
HCT-116 colon
  TGI: > 100 µM
HCT-15 colon
  TGI: > 100 µM
HL-60(TB) leukemia
  TGI: > 100 µM
HOP-62 NSCLC
  TGI: 29 µM
HOP-92 NSCLC
  TGI: > 100 µM
HS 578T breast
  TGI: 55.2 µM
HT29 colon
  TGI: 39.2 µM
IGROV1 ovarian
  TGI: > 100 µM
K-562 leukemia
  TGI: > 100 µM
KM12 colon
  TGI: > 100 µM
M14 melanoma
  TGI: > 100 µM
MALME-3M melanoma
  TGI: > 100 µM
MCF7 breast
  TGI: > 100 µM
MDA-MB-231 breast
  TGI: > 100 µM
MDA-MB-435
  TGI: > 100 µM
MDA-N
  TGI: > 100 µM
MOLT-4 leukemia
  TGI: > 100 µM
NCI-H226 lung
  TGI: 27.9 µM
NCI-H23 lung
  TGI: > 100 µM
NCI-H460 lung
  TGI: > 100 µM
NCI-H522 lung
  TGI: > 100 µM
NCI/ADR-RES ovarian
  TGI: > 100 µM
OVCAR-3 ovarian
  TGI: 26.8 µM
OVCAR-4 ovarian
  TGI: > 100 µM
OVCAR-5 ovarian
  TGI: > 100 µM
OVCAR-8 ovarian
  TGI: > 100 µM
PC-3 prostate
  TGI: 27.6 µM
RPMI-8226 leukemia
  TGI: > 100 µM
RXF 393 renal
  TGI: > 100 µM
SF-268 CNS
  TGI: > 100 µM
SF-295 CNS
  TGI: > 100 µM
SF-539 CNS
  TGI: > 100 µM
SK-MEL-2 melanoma
  TGI: 30.7 µM
SK-MEL-28 melanoma
  TGI: > 100 µM
SK-MEL-5 melanoma
  TGI: > 100 µM
SK-OV-3 ovarian
  TGI: > 100 µM
SN12C renal
  TGI: > 100 µM
SNB-19 CNS
  TGI: > 100 µM
SNB-75 CNS
  TGI: > 100 µM
SW-620 colon
  TGI: > 100 µM
T-47D breast
  TGI: > 100 µM
TK-10 renal
  TGI: > 100 µM
U251 CNS
  TGI: > 100 µM
UACC-257 melanoma
  TGI: > 100 µM
UACC-62 melanoma
  TGI: > 100 µM
UO-31 renal
  TGI: > 100 µM
